What all share (type): in vivo
In assay [1] the test system is Plasmopara viticola. The assay can be described thus: Activity against Peronospora of grapevines caused by Plasmopara viticola. As to conditions: individual active compound, potted vines. The method, then: The active compounds, separately or jointly, were prepared as a stock solution with 0.25% by weight of active compound in acetone or DMSO. 1% by weight of the emulsifier Uniperol® EL (wetting agent having emulsifying and dispersing action based on ethoxylated alkylphenols) was added to this solution. The active compounds or the mixtures were diluted with water to the stated concentration.
Evaluation was carried out by determining the infected leaf areas in percent. These percentages were converted into efficacies. The efficacy (W) is calculated as follows using Abbot's formula: W=(1−α/β)·100 • α is the level of fungicidal infection of the treated plants in % and • β is the level of fungicidal infection of the untreated (control) plants in %
An efficacy of 0 means that the infection level of the treated plants corresponds to that of the untreated control plants; an efficacy of 100 means that the treated plants were not infected.
The expected efficacies of the mixtures of active compounds were determined using Colby's formula [R. S. Colby, Weeds 15, 20-22 (1967)] and compared with the observed efficacies. Colby's formula: E=x+y−x·y/100 • E expected efficacy, expressed in % of the untreated control, when using the mixture of the active compounds A and B at the concentrations a and b • x efficacy, expressed in % of the untreated control, when using active compound A at the concentration a • y efficacy, expressed in % of the untreated control, when using active compound B at the concentration b
Leaves of potted vines were sprayed to runoff point with an aqueous suspension having the concentration of active compound stated below. The next day, the undersides of the leaves were inoculated with an aqueous sporangial suspension of Plasmopara viticola. The grapevines were then initially placed into a water-vapor-saturated chamber at 24° C. for 48 hours and then placed in a greenhouse at 20-30° C. for 5 days. After this period of time, the plants were again placed in a humid chamber for 16 hours to promote sporangiophore eruption. The extent to which the infection had developed on the undersides of the leaves was then determined visually.

Assay [2] concerns Pyricularia oryzae. As to conditions: individual active compound, rice seedlings Tai-Nong 67.
In assay [3] the test system is Cochliobolus miyabeanus. The assay is described as follows: Activity against brown spot of rice caused by Cochliobolus miyabeanus, protective treatment. The conditions noted are these: Bipolaris oryzae, 144 h, read-out: Efficacy in % of the untreated control.

Read-outs that look alike come from different tables or passages of the source.

On to `CC1CCN(c2c(-c3c(F)cc(F)cc3F)c(Cl)nc3ncnn23)CC1` [I, 5-chloro-7-(4-methylpiperidin-1-yl)-6-(2,4,6-trifluorophenyl)-[1,2,4]triazolo[1,5-a]pyrimidine], for which the “Efficacy in % of the untreated control” value came to 0% in assay [1] (1 ppm in the spray liquor); 38% in assay [1] (4 ppm in the spray liquor); 0% in assay [2] (0.25 ppm in the spray liquor); 11% in assay [2] (1 ppm in the spray liquor); 33% in assay [2] (4 ppm in the spray liquor). Besides, in assay [3], the pest or weed control at 4 ppm came out at 33%.
For `Clc1ccc(C2(Cn3cncn3)CC(Br)CO2)c(Cl)c1` (stereo not shown) [II (bromuconazole), 1-[4-bromo-2-(2,4-dichlorophenyl)tetrahydrofuran-2-ylmethyl]-1H-[1,2,4]triazole], in assay [3], the pest or weed control at 1 ppm came to 13%, the pest or weed control at 4 ppm was determined as 25% and the pest or weed control at 16 ppm was determined as 50%.
For the compound `CC1COC(Cn2cncn2)(c2ccc(Oc3ccc(Cl)cc3)cc2Cl)O1` (stereo not shown) [III (difenoconazole)], in assay [3], the pest or weed control at 1 ppm was 13%, the pest or weed control at 4 ppm is 38% and the pest or weed control at 16 ppm was 63%.
Taken in the same sequence, the figures for `CC(C)(C)C(O)/C(=C\c1ccc(Cl)cc1Cl)n1cncn1` (stereo not shown) [IV (diniconazole), 1-(2,4-dichlorophenyl)-4,4-dimethyl-2-[1,2,4]triazol-1-ylpent-1-en-3-ol] were 0%, 0% and 25%.
In the case of `N#CC(Cc1ccc(Cl)cc1)(c1ccccc1)n1cncn1` (stereo not shown) [V (fenbuconazole), 3-(4-chlorophenyl)-2-phenyl-2-[1,2,4]triazol-1-ylpropionitrile], the “Efficacy in % of the untreated control” value in assay [2] (1 ppm in the spray liquor) came to 0%.
As to `O=c1c2cc(F)ccc2nc(-n2cncn2)n1-c1ccc(Cl)cc1Cl` [VI (fluquinconazole), 3-(2,4-dichlorophenyl)-6-fluoro-2-[1,2,4]-triazol-1-yl-3H-quinazolin-4-one], the “Efficacy in % of the untreated control” value in assay [1] (1 ppm in the spray liquor) and in assay [1] (4 ppm in the spray liquor) was 0% in each case.
As to `CCCCC(O)(Cn1cncn1)c1ccc(Cl)cc1Cl` (stereo not shown) [VIII (hexaconazole), 2-(2,4-dichlorophenyl)-1-[1,2,4]triazol-1-ylhexan-2-ol], the “Efficacy in % of the untreated control” value in assay [2] (1 ppm in the spray liquor) came to 11%.
As to `FC(F)C(F)(F)OCC(Cn1cncn1)c1ccc(Cl)cc1Cl` (stereo not shown) [X (tetraconazole), 1-[2-(2,4-dichlorophenyl)-3-(1,1,2,2-tetrafluoroethoxy)propyl]-1H-[1,2,4]triazole], the “Efficacy in % of the untreated control” value in assay [1] (1 ppm in the spray liquor) and in assay [1] (4 ppm in the spray liquor) was 0% in each case.
Consider `CCCOC/C(=N\c1ccc(Cl)cc1C(F)(F)F)n1cncn1` [XI (triflumizole), (4-chloro-2-trifluormethylphenyl)-(2-propoxy-1-[1,2,4]triazol-1-ylethylidene)amine], for which, in assay [2] (1 ppm in the spray liquor), the “Efficacy in % of the untreated control” value came out at 11%.
Turning to `OC(Cn1cncn1)(c1ccc(F)cc1)c1ccccc1F` (stereo not shown) [XII (flutriafol), 1-(4-fluorophenyl)-1-(2-fluorophenyl)-2-[1,2,4]triazol-1-ylethanol], in assay [3], the pest or weed control at 1 ppm turned out to be 0%, the pest or weed control at 4 ppm stood at 25% and the pest or weed control at 16 ppm was found to be 63%.
The matching figures for `CCCC(Cn1cncn1)c1ccc(Cl)cc1Cl` (stereo not shown) [XIV (penconazole), 1-[2-(2,4-dichlorophenyl)pentyl]-1H-[1,2,4]triazole]: 0%, 25% and 63%.
As to `CC(C)C1CCC(Cc2ccc(Cl)cc2)C1(O)Cn1cncn1` (stereo not shown) [XVI (ipconazole), 2-(4-chlorobenzyl)-5-isopropyl-1-[1,2,4]triazol-1-ylmethylcyclo pentanol], the “Efficacy in % of the untreated control” value in assay [2] (1 ppm in the spray liquor) amounted to 11%.
For `CC1(C)CC/C(=C\c2ccc(Cl)cc2)C1(O)Cn1cncn1` (stereo not shown) [XVII (triticonazole), 5-(4-chlorobenzylidene)-2,2-dimethyl-1-[1,2,4]triazol-1-ylmethyl cyclopentanol], the “Efficacy in % of the untreated control” value in assay [1] (1 ppm in the spray liquor) and in assay [1] (4 ppm in the spray liquor) was 0% throughout.
For `OC(Cc1ccccc1Cl)(Cn1nc[nH]c1=S)C1(Cl)CC1` (stereo not shown) [XVIII (prothioconazole), 2-[2-(1-chlorocyclopropyl)-3-(2-chlorophenyl)-2-hydroxypropyl]-2,4-dihydro[l,2,4]triazole-3-thione], in assay [3], the pest or weed control at 1 ppm worked out at 13%, the pest or weed control at 4 ppm worked out at 50% and the pest or weed control at 16 ppm was determined as 63%.
